The supplement of paper PMC5908809

Experiments:
SNK-6 (IL-2 2.5 ng/mL) [1] = assay: percent inhibition of viability; higher = more inhibition; details: 72 h
NKL (IL-2 2.5 ng/mL) [2] = assay: as above; details: 72 h
YT (IL-2 2.5 ng/mL) [3] = assay: as above; details: 72 h
[4] = test system: normal primary NK cells, pool 1 (3 donors), resting (IL-2 0 ng/mL); assay: as above; details: 72 h
NK-YS (IL-2 2.5 ng/mL) [5] = assay: as above; details: 72 h
KHYG-1 (IL-2 2.5 ng/mL) [6] = assay: as above; details: 72 h
NK-92 (IL-2 2.5 ng/mL) [7] = assay: as above; details: 72 h
KAI3 (IL-2 2.5 ng/mL) [8] = assay: as above; details: 72 h
[9] = test system: normal primary NK cells, pool 2 (3 donors) (IL-2 2.5 ng/mL); assay: as above; details: 72 h
[10] = test system: normal primary NK cells, pool 3 (3 donors) (IL-2 2.5 ng/mL); assay: as above; details: 72 h
DERL-7 (IL-2 2.5 ng/mL) [11] = assay: as above; details: 72 h
[12] = test system: normal primary NK cells, pool 1 (3 donors) (IL-2 2.5 ng/mL); assay: as above; details: 72 h
IMC-1 (IL-2 20 ng/mL) [13] = assay: as above; details: 72 h
[14] = test system: normal NK cells expanded with K562-aAPC; assay: drug sensitivity score (DSS) (DSS units); higher = more sensitive; extreme values may be limits of the assay; details: 72 h; IL-2 2.5 ng/mL
Procedure: (§1)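 Drug sensitivity and resistance testing on K562-aAPC-expanded normal NK cells: 5 concentrations (10-fold steps over a 10,000-fold range), 72 h at 37 °C, viability by CellTiter-Glo normalised to DMSO and benzethonium chloride controls; DSS from the fitted curve.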

[15] = test system: normal NK cells expanded with K562-aAPC; assay: percent inhibition of viability; higher = more inhibition; details: 72 h, IL-2 2.5 ng/mL
Procedure: as §1

SNK-6 (IL-2 2.5 ng/mL) [16] = assay: drug sensitivity score (DSS) (DSS units); higher = more sensitive; extreme values may be limits of the assay; details: 72 h
NKL (IL-2 2.5 ng/mL) [17] = assay: as above; details: 72 h
YT (IL-2 2.5 ng/mL) [18] = assay: as above; details: 72 h
[19] = test system: normal primary NK cells, pool 1 (3 donors), resting (IL-2 0 ng/mL); assay: as above; details: 72 h
NK-YS (IL-2 2.5 ng/mL) [20] = assay: as above; details: 72 h
KHYG-1 (IL-2 2.5 ng/mL) [21] = assay: as above; details: 72 h
NK-92 (IL-2 2.5 ng/mL) [22] = assay: as above; details: 72 h
KAI3 (IL-2 2.5 ng/mL) [23] = assay: as above; details: 72 h
[24] = test system: normal primary NK cells, pool 2 (3 donors) (IL-2 2.5 ng/mL); assay: as above; details: 72 h
[25] = test system: normal primary NK cells, pool 3 (3 donors) (IL-2 2.5 ng/mL); assay: as above; details: 72 h
DERL-7 (IL-2 2.5 ng/mL) [26] = assay: as above; details: 72 h
[27] = test system: normal primary NK cells, pool 1 (3 donors) (IL-2 2.5 ng/mL); assay: as above; details: 72 h
IMC-1 (IL-2 20 ng/mL) [28] = assay: as above; details: 72 h

CN1CCc2c(c3ccccc3n2Cc2ccc(C(=O)NO)cc2)C1 [Tubastatin A] (max concentration tested 10000 nM)
percent inhibition of viability [%]
Details | 1 nM | 10 nM | 100 nM | 1000 nM | 10000 nM
DERL-7 (IL-2 2.5 ng/mL) [11] | -3.55 | 1.06 | -2.9 | -2.52 | 60
IMC-1 (IL-2 20 ng/mL) [13] | -3.32 | -4.63 | -0.4 | -1.55 | 84.5
KAI3 (IL-2 2.5 ng/mL) [8] | 2.16 | -0.84 | 7.18 | 38.8 | 90.5
KHYG-1 (IL-2 2.5 ng/mL) [6] | -2.63 | -7.38 | -2.24 | 5.2 | 68.8
NK-92 (IL-2 2.5 ng/mL) [7] | -3.57 | -14.2 | -5.66 | 22.2 | 92.4
NK-YS (IL-2 2.5 ng/mL) [5] | -4.34 | -5.38 | -3.76 | 9.99 | 54.1
NKL (IL-2 2.5 ng/mL) [2] | -6.98 | -8.33 | 6.76 | 35.4 | 74.1
SNK-6 (IL-2 2.5 ng/mL) [1] | 8.54 | 0.91 | 4.89 | 18.5 | 57
YT (IL-2 2.5 ng/mL) [3] | -0.87 | -2.95 | -0.96 | 6.63 | 72.9
[4] | 8.81 | 19.6 | 12 | 26.2 | 81.9
[9] | -2.86 | 0.66 | 3.2 | 7.48 | 46.4
[10] | -0.16 | 11.4 | -0.85 | -0.8 | 29.6
[12] | 7.05 | 12.2 | 16.9 | 13 | 63.5
[15] | -5.45 | -1.84 | -1.29 | 9.86 | 53.5

Details | drug sensitivity score
DERL-7 (IL-2 2.5 ng/mL) [26] | 3.03
IMC-1 (IL-2 20 ng/mL) [28] | 4.57
KAI3 (IL-2 2.5 ng/mL) [23] | 9.51
KHYG-1 (IL-2 2.5 ng/mL) [21] | 4.58
NK-92 (IL-2 2.5 ng/mL) [22] | 8.57
NK-YS (IL-2 2.5 ng/mL) [20] | 4.55
NKL (IL-2 2.5 ng/mL) [17] | 8.2
SNK-6 (IL-2 2.5 ng/mL) [16] | 5.42
YT (IL-2 2.5 ng/mL) [18] | 5.09
[14] | 4.5
[19] | 7.58
[24] | 3.66
[25] | 1.21
[27] | 5.39

Cc1nc(C(=O)NCC(=O)O)c(O)c2ccc(Oc3ccccc3)cc12 [FG-4592] (max concentration tested 10000 nM)
percent inhibition of viability [%]
Details | 1 nM | 10 nM | 100 nM | 1000 nM | 10000 nM
DERL-7 (IL-2 2.5 ng/mL) [11] | -0.63 | 3.45 | 4.49 | 0.12 | 6.99
IMC-1 (IL-2 20 ng/mL) [13] | -3.51 | -1.09 | 1.25 | -1.57 | 22.9
KAI3 (IL-2 2.5 ng/mL) [8] | 1.56 | -2.99 | 1.6 | -0.39 | 17.9
KHYG-1 (IL-2 2.5 ng/mL) [6] | 0.18 | -1.43 | 2.3 | 3.63 | 19.2
NK-92 (IL-2 2.5 ng/mL) [7] | -0.86 | -2.06 | 10.9 | 12.5 | 8.29
NK-YS (IL-2 2.5 ng/mL) [5] | -2.71 | -1.91 | 3.2 | 3.83 | 27.3
NKL (IL-2 2.5 ng/mL) [2] | -14 | -13 | -11.3 | -0.19 | 22.6
SNK-6 (IL-2 2.5 ng/mL) [1] | 3.91 | -11.4 | 5.11 | 2.73 | 28
YT (IL-2 2.5 ng/mL) [3] | 1.14 | -2.12 | -1.6 | -8.84 | 8.38
[4] | 5.05 | -14.3 | 2.92 | -12.2 | -4.7
[9] | -11.8 | -5.39 | -6.37 | 1.43 | 10.4
[10] | -2.12 | -3.88 | -1.26 | 5.12 | 5.24
[12] | 0.46 | 1.21 | -8.95 | -4.43 | -4.71
[15] | -0.43 | -0.13 | -0.05 | 6.19 | 12.6

Details | drug sensitivity score
DERL-7 (IL-2 2.5 ng/mL) [26] | 0
IMC-1 (IL-2 20 ng/mL) [28] | 0.7
KAI3 (IL-2 2.5 ng/mL) [23] | 0.42
KHYG-1 (IL-2 2.5 ng/mL) [21] | 1
NK-92 (IL-2 2.5 ng/mL) [22] | 1.18
NK-YS (IL-2 2.5 ng/mL) [20] | 1.72
NKL (IL-2 2.5 ng/mL) [17] | 0.76
SNK-6 (IL-2 2.5 ng/mL) [16] | 1.59
YT (IL-2 2.5 ng/mL) [18] | 0
[14] | 0.37
[19] | 0
[24] | 0
[25] | 0
[27] | 0
